The subject of assay [1] is MDA-MB-468 cells (human breast cancer cells). The experiment in a line: MTT cell growth inhibition, 72 h, MDA-MB-468. Type of assay: cell-based. Conditions: MDA-MB-468, 72 h, read-out: MDA-MB-468 (GI50). As for the experimental part:
(§1) A549 (human lung cancer cells), MCF-7 (human breast cancer cells), MDA-MB-231 (human breast cancer cells) and MDA-MB-468 cells (human breast cancer cells) were maintained in Dulbecco's modified Eagle medium (DMEM, Invitrogen, Carlsbad, Calif.) supplemented with 10% (v/v) fetal calf serum (Sigma, St. Louis, Mo.), 10 μg/mL penicillin and 10 μg/mL streptomycin (Invitrogen, Carlsbad, Calif.) at 37° C. under 5% CO2. On the day of experiment, different concentrations of the drugs (final concentration 10^−8-10^−4 M) in duplicates were added to the cells and the cells were further incubated for 72 h. Then, the number of live cells was quantified by 3-(4,5-dimethyl-2-thiazolyl)-2,5-diphenyl-2H-tetrazolium bromide (MTT reagent, Sigma, St. Louis, Mo.).
(§2) The amount of reduced MTT formazan generated by live cells was determined by its absorbance at 570 nm after subtracting the background absorbance at 690 nm. The percent of cell growth was expressed as (A570(treated)−A570(initial))/(A570(vehicle treated)−A570(initial))*100, where A570(initial) represents initial cell population when drugs are added. The GI50 were derived from non-linear regression analysis of the dose-response curve using Prism 4.0 (GraphPad). […] Data were presented as mean±SD of at least two measurements in duplicates unless noted.

Assay [2] deals with MDA-MB-231 (human breast cancer cells). Briefly: MTT cell growth inhibition, 72 h, MDA-MB-231. The class given is cell-based. Particulars: MDA-MB-231, 72 h, read-out: MDA-MB-231 (GI50). As to the method:
as §1, §2

Assay [3] relates to A549 (human lung cancer cells). Briefly: MTT cell growth inhibition, 72 h, A549. Conditions: A549, 72 h, read-out: A549 (GI50). Type of assay: cell-based. As to the method: as §1, §2
The subject of assay [4] is MCF-7 (human breast cancer cells). Briefly: MTT cell growth inhibition, 72 h, MCF-7. The class given is cell-based. Conditions: MCF7, 72 h, read-out: MCF-7 (GI50). As to the method: as §1, §2
Assay [5] deals with CREB-mediated gene transcription. Briefly: CREB reporter (pCRE-RLuc) assay in HEK 293T cells, forskolin-stimulated. Particulars: Homo sapiens, 5 h, read-out: CREB reporter inhibition (IC50). The class given is cell-based. As for the experimental part:
HEK293T cells in a 10-cm plate were transfected with pCRE-RLuc (6.0 μg) using Lipofectamine™ 2000 (Invitrogen, Carlsbad, Calif.) according to manufacturer's protocol. After 3 h, the transfected cells were collected and replated into 96-well plates (1-2×10^4 cells/well). The cells were allowed to attach to the bottom of the wells for overnight, when compounds of different concentrations were added to the cells. Forskolin (final concentration of 10 μM, LC Laboratories, Woburn, Mass.) was added 30 min after the addition of the compounds. The cells were then incubated at 37° C. for 5 h. The media in the wells were removed and the cells were then lysed in 30 μL of 1×Renilla luciferase lysis buffer (Promega, Madison, Wis.). To measure Renilla luciferase activity, five μL of the lysate was combined with 30 μL of benzyl-coelenterazine (Nanolight, Pinetop, Ariz.) solution in PBS (pH 7.4, 10 μg/mL). The sample protein concentration was determined by Dye Reagent Concentrate (Bio-Rad, Hercules, Calif.). The Renilla luciferase activity was normalized to protein content in each well and expressed as relative luciferase unit/μg protein (RLU/μg protein). The IC50 was derived from non-linear regression analysis of the RLU/μg protein-concentration curve in Prism 5.0 (La Jolla, Calif.).

Another assay addresses T1, KIX-KID (Homo sapiens, UniProt Q92793).
T1 construct: made in house
Briefly: KIX-KID inhibition, split Renilla luciferase complementation (RLucC-KIX and KID-RLucN). Type of assay: binding. Particulars: 4° C., 24 h. As to the method: RLucC-KIX (15 ng) and KID-RLucN-containing cell lysates (0.5 mg) were mixed together in Renilla luciferase lysis buffer (Promega, Madison, Wis.) in the presence of different concentrations of compounds. The final volume of the incubation mixture is 30 μL. The mixture was incubated at 4° C. for 24 h. Then Renilla luciferase activity was measured by combining 5 μL of incubation mixture with 30 μL of coelenterazine solution in PBS (pH 7.4, 10 μg/mL).

Data on 7 compounds can be found in US9073820B2, “Pharmaceutical compositions comprising napthamides” (OREGON HEALTH & SCIENCE UNIVERSITY, priority 2011, dated 2015).

Read-outs that look alike come from different tables or passages of the source.

T1 sequence (Q92793 587-666 limits assumed): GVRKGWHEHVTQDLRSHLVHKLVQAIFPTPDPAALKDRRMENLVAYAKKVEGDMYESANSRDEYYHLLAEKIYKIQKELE

For `NCCCOc1nc2ccccc2cc1C(=O)NCCOc1cc2ccccc2cc1C(=O)Nc1ccc(Cl)cc1O` [Compound 7], the GI50 in assay [1] was found to be 140 ± 24 nM; in assay [2], 840 ± 180 nM; in assay [3] it was 640 nM; in assay [4], 190 nM. Moreover, the IC50 in assay [5] (HEK-293T) stood at 170 ± 66 nM.
For the compound `NCCCOc1nc2ccccc2cc1C(=O)NCCOc1nc2ccccc2cc1C(=O)Nc1ccc(Cl)cc1F` [Compound 9], the concentration for 50% growth inhibition (GI50) in assay [2] stood at 370 ± 250 nM. In addition, the IC50 in assay [5] (HEK-293T) was 440 ± 340 nM.
Consider `NCCCOc1nc2ccccc2cc1C(=O)NCCOc1nc2ccccc2cc1C(=O)Nc1ccc(Cl)cc1O` [Compound 8], for which the GI50 was 290 ± 55 nM in assay [1] and 540 ± 130 nM in assay [2]. Besides, the half-maximal inhibitory concentration (IC50) in assay [5] (HEK-293T) worked out at 4030 ± 200 nM.
Regarding `COc1cc2ccccc2cc1C(=O)Nc1ccccc1OC(=O)c1cc2ccccc2cc1OC` [Compound 2, reference compound], the GI50 in assay [1] (MTT, mean±SD) worked out at 8130 ± 5470 nM; in assay [2] (MTT, mean±SD) it was 23500 ± 2270 nM; in assay [3] (MTT, mean±SD), 8780 ± 2550 nM; in assay [4] (MTT, mean±SD) it was 3380 ± 490 nM. For the same compound, the IC50 against KIX-KID turned out to be 170 ± 120 nM; in assay [5] (HEK 293T, forskolin 10 μM), 1950 ± 1140 nM.
For `O=C(Nc1ccc(Cl)cc1)c1cc2ccccc2cc1O` [Compound 1, reference compound], the GI50 in assay [1] (MTT, mean±SD) was 1460 ± 300 nM; in assay [2] (MTT, mean±SD), 2350 ± 600 nM. The IC50 amounted to 2900 ± 810 nM at KIX-KID and 2290 ± 310 nM in assay [5] (HEK 293T, forskolin 10 μM).
Regarding `NCCCOc1cc2ccccc2cc1C(=O)Nc1ccc(Cl)cc1OC(=O)c1cc2ccccc2cc1OCCCN` [Compound 3, reference compound], the IC50 on KIX-KID amounted to 8020 ± 360 nM; in assay [5] (HEK 293T, forskolin 10 μM) it was 2270 ± 280 nM.
Take `NCCCOc1cc2ccccc2cc1C(=O)NCCOc1nc2ccccc2cc1C(=O)Nc1ccc(Cl)cc1O` [Compound 6]: the GI50 in assay [1] was 13 ± 2 nM; in assay [2], 190 ± 120 nM. For the same compound, the IC50 in assay [5] (HEK-293T) was 72 ± 9 nM.

As a reminder, the GI50 is the concentration that inhibits growth by half. As usually defined, the IC50 is the concentration that gives 50% inhibition.
